The record followed here is patent publication US7326732B2, “EP2 receptor agonists” (Pharmagene Laboratories Limited, priority 2004, dated 2008).

A value given as a limit tells only on which side of the number the result lay.

One assay addresses T1, human EP2 receptor (Homo sapiens, UniProt P43116).
T1 construct: expressed in transfected cells
In words: Binding ability to human EP receptors ([3H]PGE2 displacement), EP2. The note with it: membranes expressing human EP2; [3H]PGE2 3 nM; Cheng-Prusoff; read-out: pKi (M) EP2 (converted). Here is the method: (§1) Membranes were prepared from cells stably transfected with human EP receptor cDNA. In brief, cells were cultured to confluency, scraped from culture flasks, and centrifuged (800 g, 8 minutes, 4° C.). Cells were twice washed in ice cold homogenisation buffer containing 10 mMTris-HCl, 1 mM EDTA.2Na, 250 mM sucrose, 1 mM PMSF, 0.3 mM indomethacin, pH 7.4, homogenised and re-centrifuged as before. The supernatant was stored on ice and pellets re-homogenised and re-spun. Supernatants were pooled and centrifuged at 40000 g, 10 minutes, 4° C. Resultant membrane pellets were stored at −80° C. until use. For assay, membranes expressing human EP4, EP3, EP2 or EP1 receptors were incubated in Millipore (MHVBN45) plates containing assay buffer, radiolabelled [^3H]PGE2 and 0.1 to 10 000 nM concentrations of compounds. Incubations were performed at suitable temperatures and for suitable times to allow equilibrium to be reached. Non-specific binding was determined in the presence of 10 uM PGE2. Bound and free radiolabel was separated by vacuum manifold filtration using appropriate wash buffers, and bound radiolabel was determined by scintillation counting. Constituents of each of the buffers are included in table 1 below. […] Raven Press, New York, 2nd edition.

The next assay deals with T2, human EP3 receptor (Homo sapiens, UniProt P43115).
T2 construct: expressed in transfected cells
T2 sequence (P43115 1-390): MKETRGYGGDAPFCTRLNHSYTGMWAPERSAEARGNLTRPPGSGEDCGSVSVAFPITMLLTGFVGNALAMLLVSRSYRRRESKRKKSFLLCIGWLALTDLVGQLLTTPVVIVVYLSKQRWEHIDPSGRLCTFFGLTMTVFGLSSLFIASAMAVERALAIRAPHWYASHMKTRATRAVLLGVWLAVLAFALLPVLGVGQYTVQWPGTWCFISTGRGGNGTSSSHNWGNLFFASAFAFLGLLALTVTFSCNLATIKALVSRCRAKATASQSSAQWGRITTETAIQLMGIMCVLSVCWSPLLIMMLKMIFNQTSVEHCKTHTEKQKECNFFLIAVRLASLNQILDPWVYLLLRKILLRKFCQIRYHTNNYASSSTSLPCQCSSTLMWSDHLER
In words: Binding ability to human EP receptors ([3H]PGE2 displacement), EP3. The note with it: membranes expressing human EP3; [3H]PGE2 2.5 nM; Cheng-Prusoff; read-out: pKi (M) EP3 (converted). Here is the method: as §1

For assay [1], the target named is T3, human EP2 prostanoid receptors (Homo sapiens, UniProt P43116).
T3 construct: expressed in transfected cells; host or cells: HEK-293
The assay is described as follows: Agonist activity at recombinant human EP2 prostanoid receptors (cAMP in HEK-293 clones). It is filed as cell-based. The note with it: for EC50: HEK-293 stably transfected with human EP2, cAMP accumulation, read-out: pEC50 EP2 (converted); for activity (EP2 part): functional classification at EP2. Here is the method:
Culture media was Minimal essential media (MEM), supplemented with 10% foetal bovine serum, 100 U/ml penicillin, […] streptomycin, 2.5 μg/ml fungizone, 2mM glutamine. Cells were cultured to confluency (3-4 days) prior to use. Culture media was removed, and confluent cells washed three times in MEM. […] Cells were then stimulated by the addition of 25 μl of PGE2 or agonists prepared in assay buffer. In antagonist studies, cells were pre-incubated with compounds for 30 minutes prior to PGE2-mediated stimulation Plates were incubated for 15 min at 37° C., before termination of the reaction by the addition of 25 μl 1M HCl. The plate was then frozen at -20° C. overnight before determination of cAMP concentration. Stimulated cAMP levels were determined by radioligand displacement binding. In brief, plates were thawed rapidly in a waterbath, and the samples neutralised by the addition of 25 μl 1M NaOH. 30 μl was transferred to Millipore plates pre-coated with 0.5% Polyethylenimine (PEI). Samples were diluted by addition of 90 μl cAMP determination buffer (50 mM Tris, 5 mM EDTA, pH 7.0). […] 15 μl of 2 nM (final concentration) [^3H] cAMP, and 15 μl of 3'5'-cAMP protein kinase (8 μg/well final concentration) prepared in cAMP determination buffer containing 0.1% BSA, were added to each well. Plates were incubated on ice for 2 hours, before bound and free radiolabel were separated by vacuum filtration harvesting using the Millipore vacuum manifold, using ice cold water as the termination buffer. The sealing mat was removed from the Millipore plates, and the filters allowed to dry overnight. 50 μl Microscint 0 (Packard Bioscience) was added to each well, and the plate counted using the Micro-Beta Trilux topcount ^3H program. cAMP accumulation was determined from the standard curve, and values calculated in pmoles cAMP/well. Antagonists affinities (pA2 values) were determined assuming a slope of unity and the […]-Schild equation, where pA2=log [concentration ratio-1]-log[antagonist].

A further assay deals with T4, human EP4 receptor (Homo sapiens, UniProt P35408).
T4 construct: expressed in transfected cells
In words: Binding ability to human EP receptors ([3H]PGE2 displacement), EP4. The note with it: membranes expressing human EP4; [3H]PGE2 1 nM; Cheng-Prusoff; read-out: pKi (M) EP4 (converted). As for the experimental part:
as §1

T1 sequence (P43116 whole entry): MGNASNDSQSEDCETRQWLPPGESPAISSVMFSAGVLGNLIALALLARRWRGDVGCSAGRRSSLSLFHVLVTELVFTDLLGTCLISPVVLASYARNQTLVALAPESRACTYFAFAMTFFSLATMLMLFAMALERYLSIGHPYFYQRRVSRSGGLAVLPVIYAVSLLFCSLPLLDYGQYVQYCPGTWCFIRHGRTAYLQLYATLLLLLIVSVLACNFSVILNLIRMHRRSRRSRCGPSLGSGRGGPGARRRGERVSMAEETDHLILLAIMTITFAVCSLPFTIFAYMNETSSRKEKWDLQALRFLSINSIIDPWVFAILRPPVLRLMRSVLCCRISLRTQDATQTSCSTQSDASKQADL
T3 sequence (P43116 whole entry): as above
T4 sequence (P35408 whole entry): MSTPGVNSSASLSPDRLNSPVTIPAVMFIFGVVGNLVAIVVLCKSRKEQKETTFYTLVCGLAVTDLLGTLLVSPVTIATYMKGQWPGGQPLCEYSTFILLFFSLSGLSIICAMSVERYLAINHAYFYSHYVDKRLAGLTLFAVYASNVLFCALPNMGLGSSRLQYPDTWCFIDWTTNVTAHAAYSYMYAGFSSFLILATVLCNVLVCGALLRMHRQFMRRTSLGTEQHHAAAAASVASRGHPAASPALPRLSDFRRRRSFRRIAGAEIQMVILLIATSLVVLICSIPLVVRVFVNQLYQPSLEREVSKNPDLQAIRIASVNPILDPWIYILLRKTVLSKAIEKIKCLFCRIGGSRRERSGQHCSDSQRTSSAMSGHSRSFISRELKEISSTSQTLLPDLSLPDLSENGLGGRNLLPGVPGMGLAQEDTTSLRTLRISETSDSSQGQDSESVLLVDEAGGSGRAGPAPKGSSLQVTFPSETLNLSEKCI

In the case of `O=C(O)Cc1cccc(NC(=O)c2ccc(-c3ccccc3)o2)c1` [Compound 10, (3-{[5-(phenyl)-furan-2-carbonyl]-amino}-phenyl)-acetic acid], the Ki on human EP2 receptor is less than 1e-06 M; at human EP3 receptor, greater than 1e-05 M; on human EP4 receptor, greater than 1e-05 M. Moreover, in assay [1], the EC50 was less than 1 µM. The “activity (EP2 part)” value in assay [1] is given as “EP2 agonist”.
As for `COc1ccc(-c2ccc(C(=O)Nc3cccc(CC(=O)O)c3)o2)cc1` [Compound 12, (3-[(5-(4-Methoxy-phenyl)-furan-2-carbonyl)-amino]-phenyl)-acetic acid], the Ki at human EP2 receptor was less than 1e-06 M; on human EP3 receptor, greater than 1e-05 M; on human EP4 receptor, greater than 1e-05 M. Moreover, the EC50 in assay [1] is less than 1 µM. Further, the “activity (EP2 part)” value in assay [1] was “EP2 agonist”.
With `CN(C)c1ccc(-c2ccc(C(=O)Nc3cccc(CC(=O)O)c3)o2)cc1` [Compound 14, (3-[(5-(4-Dimethylamino-phenyl)-furan-2-carbonyl)-amino]-phenyl)-acetic acid], the Ki on human EP2 receptor was less than 1e-06 M; on human EP3 receptor, greater than 1e-05 M; on human EP4 receptor it was greater than 1e-05 M. Besides, the EC50 in assay [1] was less than 10 µM. The “activity (EP2 part)” value in assay [1] is on record as “EP2 agonist”.
Regarding `COc1ccccc1-c1ccc(C(=O)Nc2cccc(CC(=O)O)c2)o1` [Compound 17, (3-{[5-(2-Methoxy-phenyl)-furan-2-carbonyl]-amino}-phenyl)-acetic acid], the Ki on human EP2 receptor is less than 1e-06 M; on human EP3 receptor, greater than 1e-05 M; at human EP4 receptor it was greater than 1e-05 M. The EC50 in assay [1] is less than 1 µM. The “activity (EP2 part)” value in assay [1] was “EP2 agonist”.
For `COc1cccc(-c2ccc(C(=O)Nc3cccc(CC(=O)O)c3)o2)c1` [Compound 18, (3-{[5-(3-Methoxy-phenyl)-furan-2-carbonyl]-amino}-phenyl)-acetic acid], the Ki was less than 1e-06 M on human EP2 receptor, greater than 1e-05 M at human EP3 receptor and greater than 1e-05 M at human EP4 receptor. In addition, in assay [1], the EC50 is less than 1 µM. Also, the “activity (EP2 part)” value in assay [1] is “EP2 agonist”.
On to `CC(=O)c1cccc(-c2ccc(C(=O)Nc3cccc(CC(=O)O)c3)o2)c1` [Compound 19, (3-{[5-(3-Acetyl-phenyl)-furan-2-carbonyl]-amino}-phenyl)-acetic acid], for which the values for the Ki at human EP2 receptor, at human EP3 receptor and on human EP4 receptor were less than 1e-06 M, greater than 1e-05 M and greater than 1e-05 M, respectively. The EC50 in assay [1] is less than 10 µM. Moreover, the “activity (EP2 part)” value in assay [1] was “EP2 agonist”.
Take `CC(=O)c1ccc(-c2ccc(C(=O)Nc3cccc(CC(=O)O)c3)o2)cc1` [Compound 20, (3-{[5-(4-Acetyl-phenyl)-furan-2-carbonyl]-amino}-phenyl)-acetic acid]: the Ki on human EP2 receptor is less than 1e-06 M; at human EP3 receptor, greater than 1e-05 M; at human EP4 receptor it was greater than 1e-05 M. Moreover, the EC50 in assay [1] was less than 10 µM. Besides, the “activity (EP2 part)” value in assay [1] is “EP2 agonist”.
Turning to `Cc1cccc(-c2ccc(C(=O)Nc3cccc(CC(=O)O)c3)o2)c1` [Compound 21, (3-{[5-(3-Methyl-phenyl)-furan-2-carbonyl]-amino}-phenyl)-acetic acid], the Ki on human EP2 receptor was less than 1e-06 M; on human EP3 receptor, greater than 1e-05 M; at human EP4 receptor it was greater than 1e-05 M. Further, in assay [1], the EC50 was less than 1 µM. Besides, in assay [1], the “activity (EP2 part)” value is “EP2 agonist”.
As to `O=C(O)Cc1cccc(NC(=O)c2ccc(-c3ccc(Cl)c(Cl)c3)o2)c1` [Compound 27, (3-{[5-(3,4-Dichloro-phenyl)-furan-2-carbonyl]-amino}-phenyl)-acetic acid], the Ki at human EP2 receptor was less than 1e-07 M; on human EP3 receptor, greater than 1e-05 M; at human EP4 receptor, greater than 1e-05 M. Moreover, the EC50 in assay [1] was less than 0.1 µM. Moreover, the “activity (EP2 part)” value in assay [1] was “EP2 agonist”.
For the molecule `O=C(O)Cc1cccc(NC(=O)c2ccc(-c3ccccc3Cl)o2)c1` [Compound 30, (3-{[5-(2-Chloro-phenyl)-furan-2-carbonyl]-amino}-phenyl)-acetic acid], the Ki is less than 1e-05 M on human EP2 receptor, greater than 1e-05 M at human EP3 receptor and greater than 1e-05 M on human EP4 receptor. In assay [1], the EC50 is less than 1 µM. The “activity (EP2 part)” value in assay [1] is “EP2 Agonist”.
Consider `O=C(O)/C=C/c1cccc(NC(=O)c2ccc(-c3cccc(-c4ccccc4)c3)o2)c1` [Compound 103, 3-{3-[(5-Biphenyl-3-yl-furan-2-carbonyl)-amino]-phenyl}-acrylic acid], for which the results for the Ki on human EP2 receptor, at human EP3 receptor and on human EP4 receptor were less than 1e-07 M, greater than 1e-05 M and less than 1e-06 M, respectively.
As for `O=C(O)/C=C/c1cccc(NC(=O)c2ccc(-c3cccc(OCc4ccccc4)c3)o2)c1` [Compound 104, 3-(3-{[5-(3-Benzyloxy-phenyl)-furan-2-carbonyl]-amino}-phenyl)-acrylic acid], the results for the Ki at human EP2 receptor, at human EP3 receptor and on human EP4 receptor were less than 1e-07 M, greater than 1e-05 M and greater than 1e-05 M, respectively.
In the case of `O=C(O)/C=C/c1cccc(NC(=O)c2ccc(-c3ccc(-c4ccccc4)c(F)c3)o2)c1` [Compound 105, 3-(3-{[5-(2-Fluoro-biphenyl-4-yl)-furan-2-carbonyl]-amino}-phenyl)-acrylic acid], the Ki was less than 1e-06 M at human EP2 receptor, greater than 1e-05 M on human EP3 receptor and greater than 1e-05 M on human EP4 receptor.
Turning to `O=C(O)/C=C/c1cccc(SCc2csc(-c3ccccc3)n2)c1` [Compound 122, 3-[3-(2-Phenyl-thiazol-4-ylmethylsulfanyl)-phenyl]-acrylic acid], the Ki was less than 1e-07 M on human EP2 receptor, greater than 1e-05 M on human EP3 receptor and less than 1e-06 M on human EP4 receptor.
`O=C(O)/C=C/c1cccc(NC(=O)c2ccc(C34CC5CC(CC(C5)C3)C4)o2)c1` [Compound 123, 3-{3-[(5-Adamantan-1-yl-furan-2-carbonyl)-amino]-phenyl}-acrylic acid]: the Ki on human EP2 receptor is less than 1e-06 M; at human EP3 receptor it was greater than 1e-05 M; on human EP4 receptor it was greater than 1e-05 M.
For the molecule `O=C(Nc1cccc(OCc2nnn[nH]2)c1)c1cccc(-c2ccccc2)n1` [Compound 174, 6-Phenyl-pyridine-2-carboxylic acid [3-(1H-tetrazol-5-ylmethoxy)-phenyl]-amide], the Ki on human EP2 receptor is less than 1e-07 M; at human EP3 receptor, greater than 1e-05 M; on human EP4 receptor, less than 1e-06 M.
In the same order, the values of `O=C(Nc1cccc(/C=C/c2nnn[nH]2)c1)c1cccc(-c2ccccc2)n1` [Compound 175, 6-Phenyl-pyridine-2-carboxylic acid {3-[2-(1H-tetrazol-5-yl)-vinyl]phenyl}-amide] are less than 1e-07 M, greater than 1e-05 M and less than 1e-07 M.
In the same order, the values of `O=C(Nc1cccc(/C=C/c2nnn[nH]2)c1)c1cc(-c2ccccc2)ccc1F` [Compound 176, 4-Fluoro-biphenyl-3-carboxylic acid {3-[2-(1H-tetrazol-5-yl)-vinyl]phenyl}-amide] are less than 1e-07 M, greater than 1e-05 M and greater than 1e-05 M.
